Calls of active or inactive are those of the source. The calls are words filed in the database; no cut-off is given here.
Assays:
Klebsiella pneumoniae = test: Antimicrobial activity against Klebsiella pneumoniae ATCC 27736 assessed as inhibition of microbial growth at <= 200 ug/ml incubated for 18 hrs by micro-broth dilution method; type: functional, organism-based; conditions: dose <= 200.0 µg/ml
Escherichia coli [1] = test: Antimicrobial activity against Carbapenem-resistant Escherichia coli assessed as inhibition of microbial growth at <= 200 ug/ml incubated for 18 hrs by micro-broth dilution method; type: functional, organism-based; conditions: dose <= 200.0 µg/ml
Enterococcus faecalis = test: Antimicrobial activity against Enterococcus faecalis ATCC 29212 assessed as inhibition of microbial growth at <= 200 ug/ml incubated for 18 hrs by micro-broth dilution method; type: functional, organism-based; conditions: dose <= 200.0 µg/ml
Nakaseomyces glabratus = test: Antimicrobial activity against Candida glabrata ATCC 66032 assessed as inhibition of microbial growth at <= 200 ug/ml incubated for 18 hrs by micro-broth dilution method; type: functional, organism-based; conditions: dose <= 200.0 µg/ml
Staphylococcus aureus [2] = test: Antimicrobial activity against Staphylococcus aureus ATCC 25923 assessed as reduction in metabolic activity at < 200 ug/ml incubated for 1 to 4 hrs by CCK-8 assay; type: functional, organism-based; conditions: dose < 200.0 µg/ml, time 1-4 hrs
Escherichia coli [3] = test: Antibacterial activity against Escherichia coli ATCC 25922 infected in C57BL/6 mouse assessed as reduction in bacterial load at 10 mg/kg,ip administrated 5 hrs after bacterial infection; type: functional, organism-based
Staphylococcus aureus [4] = test: Antibacterial activity against Methicillin-resistant Staphylococcus aureus infected in C57BL/6 mouse assessed as reduction in IL-6 level in peritoneal fluid at 10 mg/kg,ip administrated 5 hrs after bacterial infection measured after 24 hrs by ELISA; type: functional, organism-based; conditions: time 19.0 hrs
Escherichia coli [5] = test: Antibacterial activity against Carbapenem-resistant Escherichia coli infected in C57BL/6 mouse assessed as reduction in IL-6 level in peritoneal fluid at 10 mg/kg,ip administrated 5 hrs after bacterial infection measured after 24 hrs by ELISA; type: functional, organism-based; conditions: time 19.0 hrs
Escherichia coli [6] = test: Antibacterial activity against Carbapenem-resistant Escherichia coli infected in C57BL/6 mouse assessed as reduction in IL-1beta level in peritoneal fluid at 10 mg/kg,ip administrated 5 hrs after bacterial infection measured after 24 hrs by ELISA; type: functional, organism-based; conditions: time 19.0 hrs
Staphylococcus aureus [7] = test: Antibacterial activity against Staphylococcus aureus ATCC 25923 infected in C57BL/6 mouse assessed as reduction in TNF-alpha level in serum at 10 mg/kg,ip administrated 5 hrs after bacterial infection measured after 24 hrs by ELISA; type: functional, organism-based; conditions: time 19.0 hrs
Staphylococcus aureus [8] = test: Antibacterial activity against Staphylococcus aureus ATCC 25923 infected in C57BL/6 mouse assessed as reduction in IL-1beta level in serum at 10 mg/kg,ip administrated 5 hrs after bacterial infection measured after 24 hrs by ELISA; type: functional, organism-based; conditions: time 19.0 hrs
Escherichia coli [9] = test: Antibacterial activity against Escherichia coli ATCC 25922 infected in C57BL/6 mouse assessed as reduction in IL-6 level in serum at 10 mg/kg,ip pre-administrated 5 hrs before bacterial infection measured after 24 hrs by ELISA; type: functional, organism-based; conditions: time 29.0 hrs
Staphylococcus aureus [10] = test: Antibacterial activity against Methicillin-resistant Staphylococcus aureus infected in C57BL/6 mouse assessed as reduction in IL-1beta level in serum at 10 mg/kg,ip administrated 5 hrs after bacterial infection measured after 24 hrs by ELISA; type: functional, organism-based; conditions: time 19.0 hrs
Escherichia coli [11] = test: Antibacterial activity against Escherichia coli ATCC 25922 infected in C57BL/6 mouse assessed as reduction in inflammatory injury in lung at 10 mg/kg,ip pre-administrated 5 hrs before bacterial infection measured after 24 hrs by hematoxylin and eosin staining based analysis; type: functional, organism-based; conditions: time 29.0 hrs
Staphylococcus aureus [12] = test: Antibacterial activity against Staphylococcus aureus ATCC 25923 infected in C57BL/6 mouse assessed as reduction in inflammatory injury in lung at 10 mg/kg,ip administrated 5 hrs after bacterial infection measured after 24 hrs by hematoxylin and eosin staining based analysis; type: functional, organism-based; conditions: time 19.0 hrs
Staphylococcus aureus [13] = test: Antibacterial activity against Staphylococcus aureus ATCC 25923 infected in C57BL/6 mouse assessed as increase in survival rate at 10 mg/kg,ip administrated 5 hrs after bacterial infection measured after 7 days; type: functional, organism-based; conditions: time 7.0 day
[14] = test system: Peritoneal macrophage cell; test: Induction of chemotaxis in mouse Peritoneal macrophage assessed as increase in macrophage migration at 25 to 100 ug/ml incubated for 8 hrs by crystal violet staining based direct transwell assay; type: functional, cell-based; conditions: dose 25-100 µg/ml
Peritoneal macrophage [15] = test: Induction of chemotaxis in mouse Peritoneal macrophage assessed as increase in macrophage migration incubated for 8 hrs by crystal violet staining based indirect transwell assay; type: functional, cell-based
Peritoneal macrophage [16] = test: Induction of chemotaxis in mouse Peritoneal macrophage assessed as upregulation of CXCL1 expression incubated for 6 hrs by ELISA; type: functional, cell-based
Mus musculus [17] = test: Induction of chemotaxis in C57BL/6 mouse assessed as upregulation of CXCL1 expression in peritoneal lavage at 10 mg/kg,ip administration measured at 5 to 24 hrs by ELISA; type: functional, organism-based; conditions: time 5-24 hrs
Peritoneal macrophage [18] = test: Immunomodulatory activity in mouse Peritoneal macrophage assessed as decrease in LPS-induced IL-1beta production at 25 to 100 ug/ml incubated for 6 hrs by ELISA; type: functional, cell-based; conditions: dose 25-100 µg/ml
[19] = test system: Peritoneal macrophage cell; test: Induction of ROS production in mouse Peritoneal macrophage incubated for 6 hrs by DCFA-DA staining based flow cytometry; type: functional, cell-based
Neutrophil [20] = test: Induction of phagocytosis in mouse bone marrow derived neutrophil cultured with CFSE-labeled Carbapenem-resistant Escherichia coli incubated for 1.5 hrs followed by bacterial exposure for 1 hr by flow cytometry; type: functional, cell-based; conditions: time 2.5 hrs
Neutrophil [21] = test: Induction of degranulation in mouse bone marrow derived neutrophil assessed as increase in BPI release at 25 to 100 ug/ml incubated for 6 hrs by ELISA; type: functional, cell-based; conditions: dose 25-100 µg/ml
[22] = test system: Peritoneal macrophage cell; test: Induction of chemotaxis in mouse Peritoneal macrophage assessed as increase in macrophage migration at 100 ug/ml preincubated with WRW4 for 30 mins followed by compound addition measured after 8 hrs by crystal violet staining based indirect transwell assay; type: functional, cell-based; conditions: dose 100.0 µg/ml
Neutrophil [23] = test: Induction of chemotaxis in mouse bone marrow derived neutrophil assessed as increase in neutrophil migration at 100 ug/ml preincubated with PTX for 30 mins followed by compound addition measured after 8 hrs by crystal violet staining based indirect transwell assay; type: functional, cell-based; conditions: dose 100.0 µg/ml
[24] = test system: Peritoneal macrophage cell; test: Induction of chemotaxis in mouse Peritoneal macrophage assessed as upregulation of CXCL2 production at 100 ug/ml preincubated with KN-62 followed by compound addition by ELISA; type: functional, cell-based; conditions: dose 100.0 µg/ml
[25] = test system: Peritoneal macrophage cell; test: Induction of chemotaxis in mouse Peritoneal macrophage assessed as upregulation of MCP-1 production at 100 ug/ml preincubated with WRW4 followed by compound addition by ELISA; type: functional, cell-based; conditions: dose 100.0 µg/ml
Peritoneal macrophage [26] = test: Immunoregulatory activity in mouse Peritoneal macrophage assessed as upregulation of p38 phosphorylation incubated for 1 hr by Western blotting analysis; type: functional, cell-based
Peritoneal macrophage [27] = test: Immunoregulatory activity in mouse Peritoneal macrophage assessed as upregulation of p65 phosphorylation incubated for 1 hr by Western blotting analysis; type: functional, cell-based
Mus musculus [28] = test: Antithrombotic activity in BALB/c mouse dorsal skin defect model assessed as increase in skin bleeding time at 30 mg/kg,SC administration; type: functional, organism-based
Staphylococcus aureus [29] = test: Antibacterial activity against Methicillin-resistant Staphylococcus aureus infected in C57BL/6 mouse with clodronate liposome-induced monocyte depletion model assessed as reduction of bacterial burden in peritoneal cavity at 10 mg/kg,ip pre-administrated 5 hrs before bacterial infection measured after 24 hrs; type: functional, organism-based; conditions: time 29.0 hrs

With `CC[C@H](C)[C@H](NC(=O)[C@@H]1CSSC[C@H](NC(=O)[C@H](CCC(=O)O)NC(=O)[C@@H](NC(=O)[C@H](CCCCN)NC(=O)[C@H](Cc2c[nH]cn2)NC(=O)[C@@H](NC(=O)[C@H](CCCCN)NC(=O)[C@H](CCC(=O)O)NC(=O)[C@H](C)NC(=O)[C@H](CCC(=O)O)NC(=O)[C@H](CCC(=O)O)NC(=O)[C@H](CCC(=O)O)NC(=O)[C@H](C)N)[C@@H](C)O)[C@@H](C)O)C(=O)N[C@@H](CC(C)C)C(=O)N[C@@H](CCC(=O)O)C(=O)N1)C(=O)N[C@@H](Cc1ccccc1)C(=O)N[C@H](C(=O)N[C@@H](CC(C)C)C(=O)N[C@@H](CC(C)C)C(=O)N1CCC[C@H]1C(=O)N1CCC[C@@H]1C(=O)N[C@H](C)C(=O)O)[C@@H](C)O` the Activity (Klebsiella pneumoniae) was “inactive”, the Activity (Escherichia coli [1]) was “inactive” and the Activity (Enterococcus faecalis) was “inactive”. For the same molecule, the Activity (Nakaseomyces glabratus) was “inactive”, the Activity (Staphylococcus aureus [2]) was “inactive” and the Activity (Escherichia coli [3]) was “Active”. The Activity (Staphylococcus aureus [4]) was “Active”, the Activity (Escherichia coli [5]) was “Active” and the Activity (Escherichia coli [6]) was “Active”. The Activity (Staphylococcus aureus [7]) was “Active”, the Activity (Staphylococcus aureus [8]) was “Active” and the Activity (Escherichia coli [9]) was “Active”. For the same molecule, the Activity (Staphylococcus aureus [10]) was “Active”, the Activity (Escherichia coli [11]) was “Active” and the Activity (Staphylococcus aureus [12]) was “Active”. The Activity (Staphylococcus aureus [13]) was “Active”, the Activity [14] was “inactive” and the Activity (Peritoneal macrophage [15]) was “Dose-Dependent Effect”. The Activity (Peritoneal macrophage [16]) was “Dose-Dependent Effect”, the Activity (Mus musculus [17]) was “inactive” and the Activity (Peritoneal macrophage [18]) was “inactive”. The Activity [19] was “Dose-Dependent Effect”, the Activity (Neutrophil [20]) was “Dose-Dependent Effect” and the Activity (Neutrophil [21]) was “Active”. For the same molecule, the Activity [22] was “Active”, the Activity (Neutrophil [23]) was “inactive” and the Activity [24] was “Active”. The Activity [25] was “Active”, the Activity (Peritoneal macrophage [26]) was “Dose-Dependent Effect” and the Activity (Peritoneal macrophage [27]) was “Dose-Dependent Effect”. For the same molecule, the Activity (Mus musculus [28]) was “inactive” and the Activity (Staphylococcus aureus [29]) was “inactive”.

Source: ChEMBL document CHEMBL5543174, “A Nonbactericidal Anionic Antimicrobial Peptide Provides Prophylactic and Therapeutic Efficacies against Bacterial Infections in Mice by Immunomodulatory-Antithrombotic Duality” (J Med Chem, 2024)
